Test results: the supplement of paper PMC9386025

What was measured:
Test in all cases: drug sensitivity score (DSS) (DSS (dimensionless)); higher = more sensitive (stronger drug response)
FIMM-PDC1 = patient-derived ovarian cancer cells; details: genetic perturbation: none (patient-derived cell culture)
Procedure, shortened: (§1)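 Drugs were pre-plated in 384-well plates at five concentrations covering a 10,000-fold range, and 1 000 – 1 500 cells per well were added from patient-derived cultures or from ovarian cancer cell lines whose shRNA had been induced with 100 ng/ml doxycycline for three days or longer. Incubation lasted three days at 37 °C under 5.0 % CO2. A PHERAstar FS then recorded CellTiter-Glo luminescence as the readout of viability. A drug sensitivity score, calculated as described before, summarised the dose-response curve of every drug.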

FIMM-PDC3 = patient-derived ovarian cancer cells; details: genetic perturbation: none (patient-derived cell culture)
Procedure, shortened: as §1

FIMM-PDC4 = patient-derived ovarian cancer cells; details: genetic perturbation: none (patient-derived cell culture)
Procedure, shortened: as §1

FIMM-PDC5 = patient-derived ovarian cancer cells; details: genetic perturbation: none (patient-derived cell culture)
Procedure, shortened: as §1

FIMM-PDC6 = patient-derived ovarian cancer cells; details: genetic perturbation: none (patient-derived cell culture)
Procedure, shortened: as §1

FIMM-PDC7 = patient-derived ovarian cancer cells; details: genetic perturbation: none (patient-derived cell culture)
Procedure, shortened: as §1

JHOS2 = tested on: JHOS2
Procedure, shortened: as §1

Kuramochi = tested on: Kuramochi
Procedure, shortened: as §1

OVSAHO = tested on: OVSAHO
Procedure, shortened: as §1

[1] = genetic perturbation: DOX-induced PTK7 shRNA knockdown
[2] = genetic perturbation: DOX-induced control shRNA

With `Nc1ncnc2c1nc(Cl)n2[C@@H]1O[C@H](CO)[C@@H](O)[C@H]1O` [8-chloro-adenosine] the drug sensitivity score (FIMM-PDC1) was 7.45, the drug sensitivity score (FIMM-PDC3) was 6 and the drug sensitivity score (FIMM-PDC4) was 5.9. It also gave a drug sensitivity score (FIMM-PDC5) of 20.2, a drug sensitivity score (FIMM-PDC6) of 10.4 and a drug sensitivity score (FIMM-PDC7) of 13.8. For the same molecule, the drug sensitivity score (JHOS2; [1]) was 12.9, the drug sensitivity score (JHOS2; [2]) was 9.4 and the drug sensitivity score (Kuramochi; [1]) was 5.75. It also gave a drug sensitivity score (Kuramochi; [2]) of 12.1, a drug sensitivity score (OVSAHO; [1]) of 18.4 and a drug sensitivity score (OVSAHO; [2]) of 6.9.
Molecule `CC(C)C[C@@H](C(=O)N[C@H](C(=O)OC1CCCC1)c1ccccc1)[C@H](O)C(=O)NO` [Tosedostat] has a drug sensitivity score (FIMM-PDC1) of 12.6, a drug sensitivity score (FIMM-PDC3) of 14.9 and a drug sensitivity score (FIMM-PDC4) of 9.5. The drug sensitivity score (FIMM-PDC5) was 12.1, the drug sensitivity score (FIMM-PDC6) was 11.1 and the drug sensitivity score (FIMM-PDC7) was 6.4. For the same molecule, the drug sensitivity score (JHOS2; [1]) was 29.8, the drug sensitivity score (JHOS2; [2]) was 14.2 and the drug sensitivity score (Kuramochi; [1]) was 0.75. For the same molecule, the drug sensitivity score (Kuramochi; [2]) was 0.7, the drug sensitivity score (OVSAHO; [1]) was 3.1 and the drug sensitivity score (OVSAHO; [2]) was 6.4.
`CCCCC(=O)OCC(=O)[C@]1(O)Cc2c(O)c3c(c(O)c2[C@@H](O[C@H]2C[C@H](NC(=O)C(F)(F)F)[C@H](O)[C@H](C)O2)C1)C(=O)c1c(OC)cccc1C3=O` [Valrubicin] showed a drug sensitivity score (FIMM-PDC1) of 5.75, a drug sensitivity score (FIMM-PDC3) of 7.3 and a drug sensitivity score (FIMM-PDC4) of 7.7. For the same molecule, the drug sensitivity score (FIMM-PDC5) was 8, the drug sensitivity score (FIMM-PDC6) was 7.2 and the drug sensitivity score (FIMM-PDC7) was 7. It also gave a drug sensitivity score (JHOS2; [1]) of 5.7, a drug sensitivity score (JHOS2; [2]) of 7.5 and a drug sensitivity score (Kuramochi; [1]) of 5.25. For the same molecule, the drug sensitivity score (Kuramochi; [2]) was 5.1, the drug sensitivity score (OVSAHO; [1]) was 6.7 and the drug sensitivity score (OVSAHO; [2]) was 5.8.
In the case of `CCS(=O)(=O)N1CCN(c2ccc(Nc3ncc(C(N)=O)c(NC4CC4)n3)cc2)CC1` [Cerdulatinib], the drug sensitivity score (FIMM-PDC1) is reported as < 0, the drug sensitivity score (FIMM-PDC3) is reported as < 0 and the drug sensitivity score (FIMM-PDC4) is reported as < 0. The drug sensitivity score (FIMM-PDC5) was < 0, the drug sensitivity score (FIMM-PDC6) was < 0 and the drug sensitivity score (FIMM-PDC7) was 5.3. The drug sensitivity score (JHOS2; [1]) was 8.2, the drug sensitivity score (JHOS2; [2]) was < 0 and the drug sensitivity score (Kuramochi; [1]) was < 0. For the same molecule, the drug sensitivity score (Kuramochi; [2]) was < 0, the drug sensitivity score (OVSAHO; [1]) was < 0 and the drug sensitivity score (OVSAHO; [2]) was < 0.
`Cc1cc(OCc2nnc(SC3CCCC3)n2-c2cccnc2)ccc1-c1ccc(S(C)(=O)=O)cc1` [NMS-873] showed a drug sensitivity score (FIMM-PDC1) of 7.55, a drug sensitivity score (FIMM-PDC3) of 9.4 and a drug sensitivity score (FIMM-PDC4) of 8.3. It also gave a drug sensitivity score (FIMM-PDC5) of 5.5, a drug sensitivity score (FIMM-PDC6) of 9.1 and a drug sensitivity score (FIMM-PDC7) of 5. It also gave a drug sensitivity score (JHOS2; [1]) of 7.7, a drug sensitivity score (JHOS2; [2]) of 5.9 and a drug sensitivity score (Kuramochi; [1]) of 8.15. The drug sensitivity score (Kuramochi; [2]) was 6.2, the drug sensitivity score (OVSAHO; [1]) was 5.1 and the drug sensitivity score (OVSAHO; [2]) was 7.5.
In the case of `COc1cccc2c1C(=O)c1c(O)c3c(c(O)c1C2=O)C[C@@](O)(C(=O)CO)C[C@@H]3O[C@H]1C[C@H](N)[C@H](O)[C@H](C)O1` [Doxorubicin], the drug sensitivity score (FIMM-PDC1) is reported as 4.7, the drug sensitivity score (FIMM-PDC3) is reported as 6.4 and the drug sensitivity score (FIMM-PDC4) is reported as 6.8. It also gave a drug sensitivity score (FIMM-PDC5) of 5.4, a drug sensitivity score (FIMM-PDC6) of 3.7 and a drug sensitivity score (FIMM-PDC7) of 6.6. It also gave a drug sensitivity score (JHOS2; [1]) of 7, a drug sensitivity score (JHOS2; [2]) of 7.6 and a drug sensitivity score (Kuramochi; [1]) of 5.1. For the same molecule, the drug sensitivity score (Kuramochi; [2]) was 5, the drug sensitivity score (OVSAHO; [1]) was 5.8 and the drug sensitivity score (OVSAHO; [2]) was 4.7.
With `CCn1cc(-c2ccnc3[nH]c(-c4cccc(CN(C)C)c4)cc23)c(-c2ccc(NC(=O)N(C)C)cc2)n1` the drug sensitivity score (FIMM-PDC1) was 2.25, the drug sensitivity score (FIMM-PDC3) was 2.8 and the drug sensitivity score (FIMM-PDC4) was 2.9. The drug sensitivity score (FIMM-PDC5) was 4.1, the drug sensitivity score (FIMM-PDC6) was < 0 and the drug sensitivity score (FIMM-PDC7) was 0.2. The drug sensitivity score (JHOS2; [1]) was < 0, the drug sensitivity score (JHOS2; [2]) was 0.4 and the drug sensitivity score (Kuramochi; [1]) was < 0. The drug sensitivity score (Kuramochi; [2]) was < 0, the drug sensitivity score (OVSAHO; [1]) was 0.4 and the drug sensitivity score (OVSAHO; [2]) was < 0.
`O=C(c1ccc(F)c(F)c1Nc1ccc(I)cc1F)N1CC(O)([C@@H]2CCCCN2)C1` [Cobimetinib] was tested, and the drug sensitivity score (FIMM-PDC1) was < 0, the drug sensitivity score (FIMM-PDC3) was 4.8 and the drug sensitivity score (FIMM-PDC4) was 12.4. For the same molecule, the drug sensitivity score (FIMM-PDC5) was 12.7, the drug sensitivity score (FIMM-PDC6) was 12 and the drug sensitivity score (FIMM-PDC7) was 7.4. The drug sensitivity score (JHOS2; [1]) was 0.8, the drug sensitivity score (JHOS2; [2]) was 11.1 and the drug sensitivity score (Kuramochi; [1]) was 6.05. It also gave a drug sensitivity score (Kuramochi; [2]) of 2.8, a drug sensitivity score (OVSAHO; [1]) of 9 and a drug sensitivity score (OVSAHO; [2]) of 3.9.
For `CCN(CC)CCCC(C)Nc1c2ccc(Cl)cc2nc2ccc(OC)cc12` (stereo unspecified) [Mepacrine], the drug sensitivity score (FIMM-PDC1) was 13.6, the drug sensitivity score (FIMM-PDC3) was 13.8 and the drug sensitivity score (FIMM-PDC4) was 17.1. The drug sensitivity score (FIMM-PDC5) was 18, the drug sensitivity score (FIMM-PDC6) was 15.9 and the drug sensitivity score (FIMM-PDC7) was 12.3. The drug sensitivity score (JHOS2; [1]) was 18.8, the drug sensitivity score (JHOS2; [2]) was 12.1 and the drug sensitivity score (Kuramochi; [1]) was 12.7. The drug sensitivity score (Kuramochi; [2]) was 10.8, the drug sensitivity score (OVSAHO; [1]) was 15.2 and the drug sensitivity score (OVSAHO; [2]) was 11.7.
For `CC(C)c1cc(-c2n[nH]c(=O)n2-c2ccc3c(ccn3C)c2)c(O)cc1O` [Ganetespib], the drug sensitivity score (FIMM-PDC1) was 13.4, the drug sensitivity score (FIMM-PDC3) was 12.9 and the drug sensitivity score (FIMM-PDC4) was 19.5. For the same molecule, the drug sensitivity score (FIMM-PDC5) was 14.3, the drug sensitivity score (FIMM-PDC6) was 13.6 and the drug sensitivity score (FIMM-PDC7) was 14. The drug sensitivity score (JHOS2; [1]) was 13.7, the drug sensitivity score (JHOS2; [2]) was 12.5 and the drug sensitivity score (Kuramochi; [1]) was 11.1. For the same molecule, the drug sensitivity score (Kuramochi; [2]) was 1.9, the drug sensitivity score (OVSAHO; [1]) was < 0 and the drug sensitivity score (OVSAHO; [2]) was 10.8.
In the case of `C[C@@H](Oc1cc(-n2cnc3ccc(CN4CCN(C)CC4)cc32)sc1C(N)=O)c1ccccc1C(F)(F)F`, the drug sensitivity score (FIMM-PDC1) is reported as 9.8, the drug sensitivity score (FIMM-PDC3) is reported as 12 and the drug sensitivity score (FIMM-PDC4) is reported as 12.1. For the same molecule, the drug sensitivity score (FIMM-PDC5) was 24.1, the drug sensitivity score (FIMM-PDC6) was 1.6 and the drug sensitivity score (FIMM-PDC7) was 8.5. It also gave a drug sensitivity score (JHOS2; [1]) of 25, a drug sensitivity score (JHOS2; [2]) of 7.5 and a drug sensitivity score (Kuramochi; [1]) of 12.6. The drug sensitivity score (Kuramochi; [2]) was 6.3, the drug sensitivity score (OVSAHO; [1]) was 16.7 and the drug sensitivity score (OVSAHO; [2]) was 8.4.
`COc1cc(Nc2ncc3c(n2)-c2ccc(Cl)cc2C(c2c(F)cccc2OC)=NC3)ccc1C(=O)O` [Alisertib] was tested, and the drug sensitivity score (FIMM-PDC1) was 0.85, the drug sensitivity score (FIMM-PDC3) was 6.2 and the drug sensitivity score (FIMM-PDC4) was 3.9. The drug sensitivity score (FIMM-PDC5) was 7.2, the drug sensitivity score (FIMM-PDC6) was < 0 and the drug sensitivity score (FIMM-PDC7) was < 0. It also gave a drug sensitivity score (JHOS2; [1]) of 1.9, a drug sensitivity score (JHOS2; [2]) of 0.9 and a drug sensitivity score (Kuramochi; [1]) of 6.25. The drug sensitivity score (Kuramochi; [2]) was 4.2, the drug sensitivity score (OVSAHO; [1]) was 7 and the drug sensitivity score (OVSAHO; [2]) was 2.4.
`O=C(/C=C\n1cnc(-c2cc(C(F)(F)F)cc(C(F)(F)F)c2)n1)NNc1cnccn1` [Selinexor] was tested, and the drug sensitivity score (FIMM-PDC1) was 12.4, the drug sensitivity score (FIMM-PDC3) was 22.4 and the drug sensitivity score (FIMM-PDC4) was 17.1. It also gave a drug sensitivity score (FIMM-PDC5) of 20.1, a drug sensitivity score (FIMM-PDC6) of 24.4 and a drug sensitivity score (FIMM-PDC7) of 19.5. For the same molecule, the drug sensitivity score (JHOS2; [1]) was 18.8, the drug sensitivity score (JHOS2; [2]) was 14.5 and the drug sensitivity score (Kuramochi; [1]) was 9.85. It also gave a drug sensitivity score (Kuramochi; [2]) of 13.5, a drug sensitivity score (OVSAHO; [1]) of 14.8 and a drug sensitivity score (OVSAHO; [2]) of 7.4.
